{
  "source": "patent US7531195B2",
  "about": "“Schisandrin B preparation” (priority 2005, dated 2009)",
  "key": {"[1]": {"system": "mitochondria of brain, heart, liver and skeletal muscle", "test": "Mitochondrial antioxidant status in various tissues of young female rats", "assay_type": "in vivo, rat", "conditions": "(−) Sch B, α-LA, α-Toc at daily 10, 5 and 70 mg/kg respectively, 15 days", "description": "The dosages were determined with reference to the equivalent amount of crude herb prescribed for human or the daily recommended intake in health supplements. The control animals received olive oil only. Twenty-four hours after the last dose, the pentobarbital-anesthetized animals were sacrificed by cardiac excision, and brain. heart, liver and skeletal muscle tissues were obtained. Tissue samples (brain, heart, liver, and skeletal muscle) were rinsed with ice-cold isotonic buffer (50 mM Tris, 0.32 M sucrose, 1 mM Na2EDTA, 0.2 mg/ml soybean trypsin inhibitor, 0.2 mg/ml bacitracine, 0.16 mg/ml benzamidine). Tissue homogenates were prepared by homogenizing 0.8 g of myocardial tissue in 8 ml ice-cold isotonic buffer and the homogenates were used for the preparation of mitochondrial fractions by differential centrifugation, as described in Chiu and Ko (2004). The mitochondrial pellets were resuspended in 1.5 ml of isotonic buffer containing 150 μl of 2 mg/ml soybean trypsin inhibitor and constituted the mitochondrial fractions. […] (St. Louis, Mo., USA). […] Aliquots (400 μl) of mitochondrial fractions were mixed with 933 μl Triton X-100 solution (0.3%, v/v, in isotonic buffer) and sonicated for 2 min on ice. The mixtures were then subjected to measurements of mitochondrial glutathione reductase (GRD), Se-glutathione peroxidase (GPX) and glutathione S-transferases (GST) activities by spectrophotometric methods, as described in Chiu et al. (2002)."}, "isolated heart": {"system": "isolated heart", "test": "Myocardial I-R injury (LDH leakage) in young adult and middle-aged rats", "assay_type": "in vivo, rat", "conditions": "10 mg/kg/day x 35", "description": "Young adult (8-10 week-old) and middle-aged (12-14 month-old retired breeder) female Sprague-Dawley rats were maintained under a 12-h dark/light cycle at about 22° C. and allowed food and water ad libitum. Experimental protocols were approved by the Research Practice Committee at the Hong Kong University of Science & Technology, Hong Kong. Animals were randomly divided into groups, with 5 animals in each. In the treatment groups, rats were intragastrically administered with Sch B (dissolved/suspended in olive oil) at a daily dose of 10 mg/kg for 15 days. The daily dose is approximated to 1.14 mg/kg for humans after adjusting the inter-species difference in drug distribution in the body. Untreated control animals received olive oil only. Twenty-four hours after the last dosing, animals were sacrificed by decapitation and the whole brain, heart ventricular, liver and skeletal muscle (hind limb) tissues were excised and subjected to biochemical analysis. To investigate the effect of (−) Sch B on myocardial ischemia-reperfusion […] injury, rats were intragastrically administered with (−) Sch B at a daily dose of 10 mg/kg for 35 days. Untreated control animals received olive oil only. Twenty-four hours after the last dosing, hearts were isolated from pentobarbital-anesthetized animals and subjected to I-R experiment. […]"}},
  "data": [
    {"smiles": "COc1cc2c(c(OC)c1OC)-c1c(cc3c(c1OC)OCO3)CC(C)C(C)C2", "note": "(single isomer, unassigned; (-)) [(−) Sch B, (−) Schisandrin B]", "values": [
      {"measurement": "GPX", "setting": "[1]; BRAIN", "result": "163 ± 9", "unit": "percent control"},
      {"measurement": "GRD", "setting": "[1]; BRAIN", "result": "150 ± 9", "unit": "percent control"},
      {"measurement": "GSH", "setting": "[1]; BRAIN", "result": "147 ± 4", "unit": "percent control"},
      {"measurement": "GST", "setting": "[1]; BRAIN", "result": "143 ± 4", "unit": "percent control"},
      {"measurement": "α-Toc level", "setting": "[1]; BRAIN", "result": "141 ± 7", "unit": "percent control"},
      {"measurement": "GPX", "setting": "[1]; HEART", "result": "143 ± 7", "unit": "percent control"},
      {"measurement": "GRD", "setting": "[1]; HEART", "result": "163 ± 6", "unit": "percent control"},
      {"measurement": "GSH", "setting": "[1]; HEART", "result": "159 ± 2", "unit": "percent control"},
      {"measurement": "GST", "setting": "[1]; HEART", "result": "161 ± 5", "unit": "percent control"},
      {"measurement": "α-Toc level", "setting": "[1]; HEART", "result": "160 ± 13", "unit": "percent control"},
      {"measurement": "GPX", "setting": "[1]; LIVER", "result": "135 ± 3", "unit": "percent control"},
      {"measurement": "GRD", "setting": "[1]; LIVER", "result": "161 ± 10", "unit": "percent control"},
      {"measurement": "GSH", "setting": "[1]; LIVER", "result": "175 ± 5", "unit": "percent control"},
      {"measurement": "GST", "setting": "[1]; LIVER", "result": "154 ± 4", "unit": "percent control"},
      {"measurement": "α-Toc level", "setting": "[1]; LIVER", "result": "167 ± 14", "unit": "percent control"},
      {"measurement": "GPX", "setting": "[1]; SKELETAL MUSCLE", "result": "125 ± 5", "unit": "percent control"},
      {"measurement": "GRD", "setting": "[1]; SKELETAL MUSCLE", "result": "166 ± 4", "unit": "percent control"},
      {"measurement": "GSH", "setting": "[1]; SKELETAL MUSCLE", "result": "137 ± 1", "unit": "percent control"},
      {"measurement": "GST", "setting": "[1]; SKELETAL MUSCLE", "result": "171 ± 10", "unit": "percent control"},
      {"measurement": "α-Toc level", "setting": "[1]; SKELETAL MUSCLE", "result": "178 ± 13", "unit": "percent control"},
      {"measurement": "degree of protection against myocardial I-R injury", "setting": "isolated heart; middle-aged rats", "result": 36, "unit": "%"},
      {"measurement": "degree of protection against myocardial I-R injury", "setting": "isolated heart; young adult rats", "result": 55, "unit": "%"}
    ]}
  ]
}
